Two compounds from PubChem BioAssay AID1259407 (Chemical Carcinogenesis Research Information System (CCRIS), 2018) can be followed below.

This series has as its system CCRIS mutagenicity, Ames/micronucleus/aberration tests. Kind of series: CCRIS mutagenicity studies. As to conditions: Metabolic Activation: NONE.

Activity calls are given as the source filed them. No rule for the calls is given here.

On to `c1cc[c]([Sn]([c]2ccccc2)([c]2ccccc2)[c]2ccccc2)cc1`, for which the mutagenic call is “inactive; negative” (Test System: AMES SALMONELLA TYPHIMURIUM, Strain/Indicator: TA98, Method: SUSPENSION/PLATE) and “inactive; negative” (Test System: AMES SALMONELLA TYPHIMURIUM, Strain/Indicator: TA100, Method: SUSPENSION/PLATE).
Regarding `C=CCN(CC=C)CCN(CC=C)CC=C.[Cl-].[Cl-].[Pd+2]`, the mutagenic call (Test System: AMES SALMONELLA TYPHIMURIUM, Strain/Indicator: TA92, Method: STANDARD PLATE) was “inactive; negative”; the mutagenic call (Test System: AMES SALMONELLA TYPHIMURIUM, Strain/Indicator: TA98, Method: STANDARD PLATE) was “inactive; negative”; the mutagenic call (Test System: AMES SALMONELLA TYPHIMURIUM, Strain/Indicator: TA100, Method: STANDARD PLATE) was “inactive; negative”; the mutagenic call (Test System: AMES SALMONELLA TYPHIMURIUM, Strain/Indicator: TA2410, Method: STANDARD PLATE) was “inactive; negative”; the mutagenic call (Test System: E. COLI, Strain/Indicator: TM6, Method: STANDARD PLATE) was “active; positive”; the mutagenic call (Test System: E. COLI, Strain/Indicator: TM9, Method: STANDARD PLATE) was “active; positive”.
